Test results reported in US9879043B1, “Synthesis of non-natural cofactor analogs of S-adenosyl-L-methionine using methionine adenosyltransferase” (University of Kentucky Research Foundation, priority 2013, dated 2018).
Read-outs that look alike come from different tables or passages of the source.

Key:
[1] = molecular target: T1, Methanocaldococcus jannaschii MAT (mMAT) (Methanocaldococcus jannaschii, UniProt Q58605); format: biochemical; settings: 2 mM Met analog, 1 mM ATP, 5 μM MAT, pH 8, 4 h, 65° C.; average of two assays
T1 sequence (Q58605 1-406): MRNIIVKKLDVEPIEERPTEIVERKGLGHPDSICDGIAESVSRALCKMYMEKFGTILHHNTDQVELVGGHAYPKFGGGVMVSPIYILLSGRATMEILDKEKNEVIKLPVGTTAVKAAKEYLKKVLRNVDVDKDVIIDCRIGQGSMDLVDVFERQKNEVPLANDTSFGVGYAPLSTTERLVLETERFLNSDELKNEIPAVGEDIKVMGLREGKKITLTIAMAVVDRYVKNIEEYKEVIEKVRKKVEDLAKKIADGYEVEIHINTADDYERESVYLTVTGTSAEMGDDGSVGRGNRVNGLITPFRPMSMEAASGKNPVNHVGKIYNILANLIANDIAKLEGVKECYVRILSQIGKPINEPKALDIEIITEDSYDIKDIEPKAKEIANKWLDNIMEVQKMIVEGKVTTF

[2] = molecular target: T2, Sulfolobus solfataricus MAT (sMAT) (Saccharolobus solfataricus, UniProt Q980S9); format: biochemical; settings: 2 mM analog, 1 mM ATP, 5 μM sMAT, pH 8.0, 4 h at 65° C., average of two assays
T2 sequence (Q980S9 1-404): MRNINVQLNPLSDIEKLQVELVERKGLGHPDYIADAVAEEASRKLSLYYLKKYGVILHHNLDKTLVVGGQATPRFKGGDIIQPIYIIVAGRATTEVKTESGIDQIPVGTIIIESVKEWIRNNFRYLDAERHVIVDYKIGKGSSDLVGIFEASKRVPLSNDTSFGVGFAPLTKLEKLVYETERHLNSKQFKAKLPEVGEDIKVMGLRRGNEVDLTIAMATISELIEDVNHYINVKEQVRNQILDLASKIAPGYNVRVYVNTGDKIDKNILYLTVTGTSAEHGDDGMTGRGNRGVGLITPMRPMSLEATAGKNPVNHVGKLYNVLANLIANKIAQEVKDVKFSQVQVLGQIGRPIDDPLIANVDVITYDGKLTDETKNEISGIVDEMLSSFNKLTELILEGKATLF

CCSCC[C@H](N)C(=O)O [compound 3, (2S)-2-amino-4-(ethylsulfanyl)butanoic acid]
Percentage Turn-over mMAT [1]: 94% | Percentage Turn-Over (sMAT) [2]: 84% | Percentage Turn-Over (sMAT) ([2]; listed as ethionine): ~100%
